What was measured:
[1] = system: SW1463 cells; assay: LC-MS/MS bioanalysis of ganetespib in SW1463 cells; assay type: in vitro ADME, human; conditions: 1 μM ganetespib, 8 hr
Protocol: (§1) Colon cancer cells were treated with 1 μM ganetespib for 5, 15, 30, 60 or 480 minutes. At each time point, media was collected and cell lysates were generated for subsequent bioanalysis of secreted and intracellular concentrations of ganetespib and its glucuronides. Equal protein concentrations from cell lysates or equal volumes of media were used for the bioanalysis. Samples were extracted by protein precipitation and analyzed by LC-MS/MS using an Agilent 1100 HPLC interfaced to an API 4000 tandem mass spectrometer (Applied Biosystems). A Phenomenex Kinetex 2.6 μm C18 (30×2.1 mm) column was used with a run time of 3.5 min per sample.

[2] = system: J82 bladder cancer cell line; assay: CellTiter-Glo viability assay, J82; assay type: cell-based; conditions: FGFR3 status K652E, 72 hours, read-out: Ganetespib IC50
Protocol: (§2) Cellular viability was assessed using the CellTiter-Glo Luminescent Cell Viability Assay (Promega) according to manufacturer protocols. Bladder cancer cell lines were seeded into 96-well plates based on optimal growth rates determined empirically for each line. Twenty-four hours after plating, cells were dosed with graded concentrations of ganetespib for 72 hours. CellTiter-Glo was added (50% v/v) to the cells, and the plates incubated for 10 minutes prior to luminescent detection in a SpectraMax Plus 384 microplate reader (Molecular Devices). Data were normalized to percent of control and IC50 values used to determine the sensitivity of each line. For the comparative analyses with ganetespib and BGJ398, RT112 cells were treated with graded concentrations of each compound for 72 hours and cell viability measured as above. For the evaluation of apoptotic induction, caspase activity was assessed using the Caspase-Glo 3/7 assay (Promega) according to manufacturer protocols. Twenty-four hours after plating, RT112 cells were treated with graded concentrations of ganetespib for 24 hours. Caspase-Glo was added to cells (50% v/v) and the plates incubated for 1 hour prior to luminescent detection.

[3] = system: 639-V bladder cancer cell line; assay: CellTiter-Glo viability assay, 639-V; assay type: cell-based; conditions: Homo sapiens, FGFR3 status R248C, 72 hours, read-out: Ganetespib IC50
Protocol: as §2

[4] = system: BFTC bladder cancer cell line; assay: CellTiter-Glo viability assay, BFTC; assay type: cell-based; conditions: FGFR3 status WT, 72 hours, read-out: Ganetespib IC50
Protocol: as §2

[5] = system: RT112 cells; assay: LC-MS/MS bioanalysis of ganetespib and glucuronidated metabolites in RT112 cells; assay type: in vitro ADME; conditions: 1 μM ganetespib, 24-hour time course
Protocol: In the first set of experiments, RT112 and SW780 cells were treated with graded concentrations of ganetespib or 17-DMAG (10-1000 nM) for 1 and 24 hours. Cell lysates were prepared for measurement of intracellular concentrations of the respective HSP90 inhibitors. RT112 and SW780 cells were also treated with 1 μM ganetespib for 15 minutes, 1, 4, 8 and 24 hours. At each time point cell lysates were prepared and media was collected for analysis of intracellular and secreted concentrations of ganetespib and its glucuronidated metabolites. Bioanalysis was performed on equal protein concentrations from cell lysates or equal volumes of media. All samples were ultimately extracted by protein precipitation and analyzed by LC-MS/MS using an Agilent 1100 HPLC interfaced to an API 4000 tandem mass spectrometer (Applied Biosystems). A Phenomenex Kinetex 2.6 μm C18 (30×2.1 mm) column was used with a run time of 3.5 min per sample.

[6] = system: 5637 bladder cancer cell line; assay: CellTiter-Glo viability assay, 5637; assay type: cell-based; conditions: FGFR3 status WT, 72 hours, read-out: Ganetespib IC50
Protocol: as §2

[7] = system: SW780 bladder cancer cell line; assay: CellTiter-Glo viability assay, SW780; assay type: cell-based; conditions: Homo sapiens, FGFR3 status FGFR3-BAIAP2L1, 72 hours, read-out: Ganetespib IC50
Protocol: as §2

[8] = system: UM-UC3 bladder cancer cell line; assay: CellTiter-Glo viability assay, UM-UC3; assay type: cell-based; conditions: Homo sapiens, UMUC3, FGFR3 status WT, 72 hours, read-out: Ganetespib IC50
Protocol: as §2

[9] = weekly dosing regimen; cited from earlier work
[10] = system: RT112 xenografts; assay: RT112 xenograft tumor model; assay type: in vivo; conditions: ganetespib 150 mg/kg i.v. once weekly, 3 weeks
Protocol: CD-1 nude mice (Charles River Laboratories, Wilmington, Mass.) at 7-12 weeks of age were maintained in a pathogen-free environment and all in vivo procedures were approved by the Synta Pharmaceuticals Corp. Institutional Animal Care and Use Committee. RT112 cells (5×10^6) were subcutaneously implanted into female mice and animals bearing established tumors (˜150 mm^3) were randomized into treatment groups of 8. Mice were i.v. dosed with ganetespib (150 mg/kg) once weekly or p.o. dosed with BGJ398 (10 mg/kg) daily, either alone or in combination, for 3 weeks. Tumor growth inhibition was monitored by tumor volume measurements twice weekly. As a measurement of in vivo efficacy, the % T/C value was determined from the change in average tumor volumes of each treated group relative to the vehicle treated animals. Statistical significance was determined using two-way ANOVA followed by Bonferroni post tests.

[11] = system: RT112 bladder cancer cells; assay: Reverse phase protein array analysis in RT112 cells; assay type: cell-based; conditions: 100 nM ganetespib, 24 hours
Protocol: RT112 cells were treated with dimethyl sulfoxide (DMSO, control) or 100 nM ganetespib for 24 hours. Lysates were prepared as recommended by MD Anderson Cancer Center (Houston, Tex.), arrayed on nitrocellulose-coated FAST slides (Whatman) and probed for a standard list of antibodies.

[12] = system: HT29 cells; assay: LC-MS/MS bioanalysis of ganetespib in HT29 cells; assay type: in vitro ADME, human; conditions: 1 μM ganetespib, 8 hr
Protocol: as §1

Compound `CC(C)c1cc(-c2n[nH]c(=O)n2-c2ccc3c(ccn3C)c2)c(O)cc1O` [ganetespib] has a ganetespib present [1] of roughly 190 nM, an IC50 [2] of 0.018 µM and an IC50 [3] of 0.01 µM. For the same compound, the IC50 [4] was 0.017 µM, the “glucuronidated form of ganetespib within cells” value [5] was “No glucuronidated form of ganetespib was detectable” and the IC50 [6] was 0.044 µM. The IC50 [7] was 3.45 µM, the IC50 [8] was 0.033 µM and the maximally tolerated dose [9] was 150 mg/kg. For the same compound, the T/C value [10] was −23%, the “Fold Change AKT” value ([11]; AKT signaling) was −2.4 fold and the “Fold Change AKT (pS473)” value ([11]; AKT signaling) was −2.5 fold. For the same compound, the “Fold Change GSK3-A/B” value ([11]; AKT signaling) was −1.5 fold, the “Fold Change GSK3-A/B (pS2/S9)” value ([11]; AKT signaling) was −1.8 fold and the “Fold Change PDK1” value ([11]; AKT signaling) was −1.4 fold. The “Fold Change PDK1 (pS241)” value ([11]; AKT signaling) was −1.7 fold, the “Fold Change BIM” value ([11]; Apoptosis) was “+1.4 fold” and the “Fold Change Caspase 7 (cleaved D198)” value ([11]; Apoptosis) was “+2.5 fold”. For the same compound, the “Fold Change CDK1” value ([11]; Cell cycle regulation) was −1.4 fold, the “Fold Change Chk1” value ([11]; Cell cycle regulation) was −3.2 fold and the “Fold Change Cyclin B1” value ([11]; Cell cycle regulation) was −1.9 fold. The “Fold Change Rb (pS807/811)” value ([11]; Cell cycle regulation) was −4.6 fold, the “Fold Change p21” value ([11]; Cell cycle regulation) was “+1.4 fold” and the “Fold Change p27” value ([11]; Cell cycle regulation) was “+1.5 fold”. The “Fold Change C-RAF” value ([11]; MAPK pathway) was −1.8 fold, the “Fold Change MAPK (pT202/Y204)” value ([11]; MAPK pathway) was −1.5 fold and the “Fold Change MEK1 (pS217/S221)” value ([11]; MAPK pathway) was −1.4 fold. For the same compound, the “Fold Change P90RSK (pT359/S363)” value ([11]; MAPK pathway) was −1.4 fold, the “Fold Change Src (pY527)” value ([11]; MAPK pathway) was −1.4 fold and the “Fold Change EGFR” value ([11]; Receptor Tyrosine Kinases) was −1.5 fold. For the same compound, the “Fold Change EGFR (pY1068)” value ([11]; Receptor Tyrosine Kinases) was −1.9 fold, the “Fold Change HER2” value ([11]; Receptor Tyrosine Kinases) was −2.2 fold and the “Fold Change HER2 (pY1248)” value ([11]; Receptor Tyrosine Kinases) was −2.2 fold. The “Fold Change HER3” value ([11]; Receptor Tyrosine Kinases) was −1.6 fold, the “Fold Change MET (pY1235)” value ([11]; Receptor Tyrosine Kinases) was −2.7 fold and the “Fold Change HSP70/72” value ([11]; Stress response) was “+3.0 fold”. For the same compound, the “Fold Change HSP90 alpha” value ([11]; Stress response) was “+1.6 fold”, the “Fold Change NF-κB p65 (pS536)” value ([11]; Transcription factors) was −2.3 fold and the “Fold Change c-Myc” value ([11]; Transcription factors) was −2.5 fold. For the same compound, the “Fold Change 4E-BP1 (pS65)” value ([11]; mTOR pathway) was −2.5 fold, the “Fold Change P70S6K (pT389)” value ([11]; mTOR pathway) was −4.7 fold and the “Fold Change PRAS40 (pT246)” value ([11]; mTOR pathway) was −1.2 fold. For the same compound, the “Fold Change S6 (pS235/S236)” value ([11]; mTOR pathway) was −13.2 fold, the “Fold Change S6 (pS240/S244)” value ([11]; mTOR pathway) was −8.9 fold and the “Fold Change TSC1” value ([11]; mTOR pathway) was −1.3 fold. For the same compound, the “Fold Change Tuberin” value ([11]; mTOR pathway) was −2.2 fold, the “Fold Change mTOR (pS2448)” value ([11]; mTOR pathway) was −2.2 fold and the ganetespib present [12] was 13 nM.

Source: patent US20160324863A1, “TARGETED CANCER TREATMENT BY HSP90 INHIBITORS GANETESPIB AND NVP-AUY922” (SYNTA PHARMACEUTICALS CORP., priority 2014, published 2016)
